Measurements from US20070128217A1 (priority 2003, published 2007).

How the values were obtained:
[1] = tested on: antibodies in sera from SARS patients (sera 1a, 1b, 2, 6, 37, 62, London, SARS-yellow, SARS-green); format: binding, human; parameters: Binding of serum 6 to linear peptides of protein X1 of SARS-CoV Urbani / Binding of serum 37 to linear peptides of protein X1 of SARS-CoV Urbani / Binding of serum 6 to looped/cyclic peptide (PEPSCAN-ELISA) / Binding of serum 37 to looped/cyclic peptide (PEPSCAN-ELISA) / Binding of serum 37 to looped/cyclic peptides of protein X1 of SARS-CoV Urbani / Binding of serum 6 to linear peptides of protein X2 / Binding of serum 37 to linear peptides of protein X2 / Binding of serum 37 to looped/cyclic peptides of protein X2 of SARS-CoV Urbani / Binding of serum 6 to linear peptides of protein M of SARS-CoV Urbani / Binding of serum 37 to linear peptides of protein M of SARS-CoV Urbani / Binding of serum 6 to looped/cyclic peptides of protein M of SARS-CoV Urbani / Binding of serum 37 to looped/cyclic peptides of protein M of SARS-CoV Urbani / Binding of serum 6 to linear peptides of protein X3 of SARS-CoV Urbani / Binding of serum 37 to linear peptides of protein X3 of SARS-CoV Urbani / Binding of serum 37 to looped/cyclic peptides of protein X3 of SARS-CoV Urbani / Binding of serum 6 to linear peptides of protein X4 of SARS-CoV Urbani / Binding of serum 37 to linear peptides of protein X4 of SARS-CoV Urbani / Binding of serum 37 to looped/cyclic peptides of protein X4 of SARS-CoV Urbani / Binding of serum 6 to linear peptides of protein X5 of SARS-CoV Urbani / Binding of serum 37 to linear peptides of protein X5 of SARS-CoV Urbani / Binding of serum 37 to looped/cyclic peptides of protein X5 of SARS-CoV Urbani / Binding of serum 6 to linear peptides of protein N of SARS-CoV Urbani / Binding of serum 37 to linear peptides of protein N of SARS-CoV Urbani / Binding of serum 6 to linear peptide (PEPSCAN-ELISA) / Binding of serum 1a to looped/cyclic peptides of protein N of SARS-CoV Urbani / Binding of serum 1b to looped/cyclic peptides of protein N of SARS-CoV Urbani / Binding of serum 2 to looped/cyclic peptides of protein N of SARS-CoV Urbani / Binding of serum 6 to looped/cyclic peptides of protein N of SARS-CoV Urbani / Binding of serum 37 to looped/cyclic peptides of protein N of SARS-CoV Urbani / Binding of serum 62 to looped/cyclic peptides of protein N of SARS-CoV Urbani / Binding of serum London to looped/cyclic peptides of protein N of SARS-CoV Urbani / Binding of serum SARS-green to looped/cyclic peptides of protein N of SARS-CoV Urbani: unit not given here
[2] = tested on: control sera (pooled serum of ten healthy LUMC hospital workers; commercial negative donor pooled serum from the Dutch bloodbank); format: binding, human; parameters: Binding of Control serum LUMC to linear peptides / Binding of Control serum Blood-bank to linear peptides / Binding of Control serum LUMC to looped peptides / Binding of Control Serum Blood-Bank to Looped peptides / Binding of Control serum LUMC to linear peptides of the protein M of SARS-CoV Urbani / Binding of Control serum Blood-bank to linear peptides of the protein M of SARS-CoV Urbani / Binding of Control serum LUMC to looped peptides of the protein M of SARS-CoV Urbani / Binding of Control Serum Blood-Bank to Looped peptides of the protein M of SARS-CoV Urbani: unit not given here
[3] = tested on: rabbit serum obtained by immunizing a rabbit with the SARS-CoV strain Frankfurt 1; format: binding; parameters: Binding of a rabbit serum to linear peptides / Binding of a rabbit serum to looped peptides / Rabbit serum linear peptides / Rabbit serum looped peptides / Binding of a rabbit serum to linear peptides of protein N of SARS-CoV Urbani (Rabbit serum linear peptides) / Binding of a rabbit serum to looped/cyclic peptides of protein N of SARS-CoV Urbani (Rabbit serum looped peptides): unit not given here
[4] = tested on: recombinant human anti-SARS-CoV antibody 03-018; format: binding; parameters: Binding of antibody 03-018 to linear peptides of the N protein of SARS-CoV Urbani / Binding of antibody 03-018 to looped/cyclic peptides of the N protein of SARS-CoV Urbani: unit not given here

Sequence | Binding of serum 1a to linear peptides of protein N of SARS-CoV Urbani [1] | Binding of serum 1a to looped/cyclic peptides of protein N of SARS-CoV Urbani [1] | Binding of serum 1b to linear peptides of protein N of SARS-CoV Urbani [1] | Binding of serum 1b to looped/cyclic peptides of protein N of SARS-CoV Urbani [1] | Binding of serum 2 to linear peptides of protein N of SARS-CoV Urbani [1] | Binding of serum 2 to looped/cyclic peptides of protein N of SARS-CoV Urbani [1] | Binding of serum 6 to linear peptides of protein N of SARS-CoV Urbani [1] | Binding of serum 6 to looped/cyclic peptides of protein N of SARS-CoV Urbani [1] | Binding of serum 37 to linear peptides of protein N of SARS-CoV Urbani [1] | Binding of serum 37 to looped/cyclic peptides of protein N of SARS-CoV Urbani [1] | Binding of serum 62 to linear peptides of protein N of SARS-CoV Urbani [1] | Binding of serum 62 to looped/cyclic peptides of protein N of SARS-CoV Urbani [1] | Binding of serum London to linear peptides of protein N of SARS-CoV Urbani [1] | Binding of serum London to looped/cyclic peptides of protein N of SARS-CoV Urbani [1] | Binding of serum SARS-green to looped/cyclic peptides of protein N of SARS-CoV Urbani [1] | Binding of serum SARS-yellow to looped/cyclic peptides of protein N of SARS-CoV Urbani [1] | Binding of a rabbit serum to linear peptides of protein N of SARS-CoV Urbani (Rabbit serum linear peptides) [3] | Binding of a rabbit serum to looped/cyclic peptides of protein N of SARS-CoV Urbani (Rabbit serum looped peptides) [3] | Binding of antibody 03-018 to linear peptides of the N protein of SARS-CoV Urbani [4] | Binding of antibody 03-018 to looped/cyclic peptides of the N protein of SARS-CoV Urbani [4] | further results
KHWPQIAQFAPSASA | 0.3 | 0.3 | 0.1 | 0.1 | 0.3 | 0.3 | 0.2 | 0.3 | 0.8 | 0.2 | 0.7 | 0.4 | 0.7 | 0.5 | 0.4 | 0.2 | 0.2 | 0.0 | 0.1 | 0.2 | Binding of serum SARS-green to linear peptides of protein N of SARS-CoV Urbani [1]: 0.6; Binding of serum SARS-yellow to linear peptides of protein N of SARS-CoV Urbani [1]: 0.8; Control Serum Blood-Bank Looped peptides [2]: 0.7; Control serum Blood-bank linear peptides [2]: 0.8; Control serum LUMC linear peptides [2]: 0.7; Control serum LUMC looped peptides [2]: 0.6
KKDKKKKTDEAQPLP | 0.3 | 0.2 | 0.2 | 0.1 | 1.9 | 2.3 | 0.2 | 0.2 | 0.7 | 0.3 | 0.7 | 0.3 | 0.6 | 0.3 | 0.1 | 0.1 | 0.1 | 0.2 | 0.1 | 0.2 | Binding of serum SARS-green to linear peptides of protein N of SARS-CoV Urbani [1]: 0.4; Binding of serum SARS-yellow to linear peptides of protein N of SARS-CoV Urbani [1]: 0.6; Control Serum Blood-Bank Looped peptides [2]: 0.5; Control serum Blood-bank linear peptides [2]: 0.7; Control serum LUMC linear peptides [2]: 0.6; Control serum LUMC looped peptides [2]: 0.4
KKPRQKRTATKQYNV |  | 0.3 |  | 0.1 |  | 0.4 |  | 0.3 |  | 0.6 |  | 0.5 |  | 0.5 | 0.1 | 0.4 | 0.3 | 0.0 | 0.1 | 0.2 | Binding of serum 1a to linear peptide (PEPSCAN-ELISA) [1]: 0.2; Binding of serum 1b to linear peptide (PEPSCAN-ELISA) [1]: 0.1; Binding of serum 2 to linear peptide (PEPSCAN-ELISA) [1]: 0.3; Binding of serum 6 to linear peptide (PEPSCAN-ELISA) [1]: 0.2; Binding of serum 37 to linear peptide (PEPSCAN-ELISA) [1]: 0.8; Binding of serum 62 to linear peptide (PEPSCAN-ELISA) [1]: 0.8; Binding of serum London to linear peptide (PEPSCAN-ELISA) [1]: 0.7; Binding of serum SARS-green to linear peptide (PEPSCAN-ELISA) [1]: 0.1; Binding of serum SARS-yellow to linear peptide (PEPSCAN-ELISA) [1]: 0.6; Binding of Control Serum Blood-Bank to Looped peptides [2]: 0.4; Binding of Control serum Blood-bank to linear peptides [2]: 0.6; Binding of Control serum LUMC to linear peptides [2]: 0.7; Binding of Control serum LUMC to looped peptides [2]: 0.5
KKQPTVTLLPAADMD | 0.3 | 0.3 | 0.2 | 0.2 | 0.2 | 0.2 | 0.2 | 0.1 | 1.0 | 0.4 | 0.7 | 0.2 | 0.6 | 0.2 | 0.7 | 0.2 | 0.1 | 0.2 | 0.1 | 0.2 | Binding of serum SARS-green to linear peptides of protein N of SARS-CoV Urbani [1]: 1.3; Binding of serum SARS-yellow to linear peptides of protein N of SARS-CoV Urbani [1]: 0.5; Control Serum Blood-Bank Looped peptides [2]: 0.3; Control serum Blood-bank linear peptides [2]: 0.7; Control serum LUMC linear peptides [2]: 0.6; Control serum LUMC looped peptides [2]: 0.3
